In ChEMBL document CHEMBL3272256, “Antimalarials. 11. 2-Vinylogs of substituted 2-aryl-4-quinoline amino alcohols” (J Med Chem, 1976):
Calls of active or inactive are those of the source. The rule behind the calls is not given here.

How the values were obtained:
Type in all cases: functional, organism-based
Plasmodium berghei [1] = assay: Antimalarial activity against Plasmodium berghei infected in mouse assessed as complete cure at 40 mg/kg; design: dose 40 mg/kg
Plasmodium berghei [2] = assay: Antimalarial activity against Plasmodium berghei infected in mouse at 10 mg/kg; design: dose 10 mg/kg
Plasmodium berghei [3] = assay: Antimalarial activity against Plasmodium berghei infected in mouse assessed as complete cure at 160 mg/kg; design: dose 160 mg/kg
Plasmodium berghei [4] = assay: Antimalarial activity against Plasmodium berghei infected in mouse at 20 mg/kg; design: dose 20 mg/kg

## Cc1cc(C)c2nc3c(c([C@H]4OC(c5ccc(Cl)cc5)N5CCCC[C@H]45)c2c1)CCC3 (mixture of isomers)
Plasmodium berghei [1]
  Activity: inactive

## CCCCN(CCCC)CC(O)c1c2c(nc3c(C)cc(C)cc13)/C(=C/c1ccc(Cl)cc1)CC2 (stereo not given)
Plasmodium berghei [1]
  Activity: Active
Plasmodium berghei [2]
  Activity: Active

## CCCCN(CCCC)CC(O)c1cc(/C=C/c2ccc(Cl)cc2)nc2c(C)cc(C)cc12 (stereo not given)
Plasmodium berghei [3]
  Activity: Active
Plasmodium berghei [4]
  Activity: Active
